The EC50 is the concentration that produces a half-maximal response.

The test system of one data set is HuVECs. Kind of data set: Cell growth inhibition assay, resazurin (Example 11). The class given is cell-based, human. Here is the method: The growth inhibitory activity of NPI-2421 and NPI-2463 were determined against human umbilical […] endothelial cells, HuVECs.
HuVECs (Cambrex Biosciences; CC2519A) were maintained in EGM-2 medium at 37° C. in 5% CO2 and 95% humidified air.
For cell growth inhibition assays, HuVECs were seeded at 1×10^3 cells/well in 90 μl complete media into a Corning 3904 black-walled, clear-bottom tissue culture plates and the plates were incubated overnight to allow cells to establish and enter log phase growth. 20 mM stock solutions of compounds were prepared in 100% DMSO and stored at −80° C. […] Ten μl volumes of the 10× serial dilutions were added to the test wells in triplicate and the plates returned to the incubator for 48 hours. The final concentration of DMSO was 0.25% in all samples.
(§1) Following 48 hours of drug exposure, 10 μl of 0.2 mg/ml resazurin (obtained from Sigma-Aldrich Chemical Co.) in Mg^2+, Ca^2+ free phosphate buffered saline was added to each well and the plates were returned to the incubator for 3-6 hours. […] Resazurin dye in medium without cells was used to determine the background, which was subtracted from the data for all experimental wells.
In general terms: The colour change of resazurin is a common sign of viable cells or microbes.

The subject of data set [1] is HL-60/MX2 multidrug resistant. Described as above. It counts as cell-based, human.
The test system of data set [2] is MES-SA/Dx5 multidrug resistant. Described as above. It counts as cell-based, human. How it is done:
(§2) Human uterine sarcoma (MES-SA; CRL-1976), its multidrug resistant derivative (MES-SA/Dx5; CRL-1977), human acute promyelocytic leukemia cells (HL-60; CCL-240) and its multidrug resistant derivative (HL-60/MX2; CRL-2257) were purchased from ATCC and maintained in appropriate culture media. The cells were cultured in an incubator at 37° C. in 5% CO2 and 95% humidified air.
(§3) For cell growth inhibition assays, MES-SA and MES-SA/Dx5 cells were both seeded at 3×10^3 cells/well in 90 μl complete media into 96 well (Corning; 3904) black-walled, clear-bottom tissue culture plates and the plates were incubated overnight to allow cells to establish and enter log phase growth. HL-60 and HL-60/MX2 cells were both seeded at 5×10^4 cells/well in 90 μl complete media into 96 well plates on the day of compound addition. 20 mM stock solutions of the compounds were prepared in 100% DMSO and stored at −80° C. […] Ten μl volumes of the 10× serial dilutions were added to the test wells in triplicate and the plates returned to the incubator for 48 hours. The final concentration of DMSO was 0.25% in all samples.
as §1
(§4) The multidrug resistant MES-SA/Dx5 tumor cell line was derived from the human uterine sarcoma MES-SA tumor cell line and expresses elevated P-Glycoprotein (P-gp), an ATP dependent efflux pump. The data in Table 19 summarize the growth inhibitory effects of NPI-2421, NPI-2463, NPI-2503, NPI-2504 and NPI-2506 against MES-SA and its multidrug resistant derivative MES-SA/Dx5. Paclitaxel, a known substrate of the P-gp pump was included as a control.

Data set [3] deals with HL-60 human acute promyelocytic leukemia cells. Described as above. The class given is cell-based. As to conditions: mean values of two independent experiments. Here is the method: as §2, §3, §1
HL-60/MX2 is a multidrug resistant tumor cell line derived from the human promyelocytic leukemia cell line, HL-60 and expresses reduced topoisomerase II activity. The data presented in Table 20 summarize the growth inhibitory effects of NPI-2421, NPI-2463, NPI-2503, NPI-2504 and NPI-2506 against HL-60 and its multidrug resistant derivative HL-60/MX2. Mitoxantrone, the topoisomerase II targeting agent was included as a control.

In data set [4] the test system is HT-29 human colorectal carcinoma cells. Nature of the data set: Cell growth inhibition assay, resazurin (Table 3.2). It counts as cell-based. As to conditions: Table 3.2, HT-29 cells, read-out: EC50 (M) Mean. The essentials:
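HT-29 cells seeded at 5×10^3/well overnight, then exposed in triplicate to compounds at final 20 μM to […] (0.25% DMSO) for 48 h at 37° C. Viability read by resazurin reduction after 3-4 h further incubation, with cell-free dye background subtracted.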

The subject of the next data set is B16-F10 melanoma. Nature of the data set: Cell growth inhibition assay, resazurin (Example 11). It counts as cell-based. The following applies: Mus musculus, 48 hours, mean ± SD where n ≧ 3. Here is the method:
(§5) The growth inhibitory activity of NPI-2421, NPI-2463, NPI-2503 and NPI-2504 were determined against selected human (colorectal adenocarcinoma, HT-29; breast adenocarcinoma, MDA-MB-231; non-small cell lung carcinoma, NCI-H292 and prostate carcinomas, PC-3 and DU 145) and mouse (melanoma, B16-F10) tumor cell lines.
(§6) HT-29 (HTB-38), MDA-MB-231 (HTB-26), NCI-H292 (CRL-1848), B16-F10 (CRL-6475), PC-3 (CRL-1435) and DU 145 (HTB-81) cells were all purchased from the ATCC. The cell lines were maintained in their respective ATCC recommended culture media and cultured in an incubator at 37° C. in 5% CO2 and 95% humidified air.
(§7) 20 mM stock solutions of compounds were prepared in 100% DMSO and stored at −80° C. 10× concentrated serial dilutions of the compounds were prepared in B16-F10 cell culture medium for final concentrations ranging from 20 μM to […]. Ten μl volumes of the 10× serial dilutions were added to the test wells in triplicate and the plates returned to the incubator for 48 hours. The final concentration of DMSO was 0.25% in all samples.
as §1

For another data set, the system named is PC-3 prostate carcinoma. Described as above. It counts as cell-based. The following applies: Homo sapiens, 48 hours, mean ± SD where n ≧ 3, ** n = 1. Here is the method: as §5, §6, §7, §1
Data set [5] concerns NCI-H292 non-small cell lung carcinoma. The data set is described as above. It counts as cell-based. As to conditions: Homo sapiens, 48 hours, mean ± SD where n ≧ 3, ** n = 1. Here is the method:
as §5, §6, §7, §1

The test system of data set [6] is HT-29 colorectal adenocarcinoma. Described as above. It counts as cell-based. As to conditions: Homo sapiens, 48 hours, mean ± SD where n ≧ 3. Here is the method: as §5, §6, §7, §1
Data set [7] relates to DU 145 prostate carcinoma. The data set is described as above. The following applies: Homo sapiens, 48 hours. It counts as cell-based. Here is the method: as §5, §6, §7, §1
For data set [8], the system named is MDA-MB-231 breast adenocarcinoma. Described as above. It counts as cell-based. As to conditions: Homo sapiens, 48 hours, mean ± SD where n ≧ 3. How it is done:
as §5, §6, §7, §1

For data set [9], the system named is MES-SA human uterine sarcoma. The data set is described as above. The class given is cell-based. The following applies: mean ± standard deviation of three independent experiments. How it is done:
as §2, §3, §1, §4

Regarding `CC(C)(C)c1ocnc1/C=c1\[nH]c(=O)/c(=C/c2cccc(F)c2)[nH]c1=O` [Compound 2463, tBu-Oxadelta-PLH-m-F], the EC50 is 10 nM with HuVECs (Homo sapiens, HuVEC, 48 hours, mean values of two independent experiments); 14 nM in data set [1] (Homo sapiens, HL60/MX2, HL-60/MX2, mean values of two independent experiments); 14 ± 3 nM in data set [2] (Homo sapiens, MES-SA/Dx5, mean ± standard deviation of three independent experiments); 26 nM in [3]; 1.71e-08 M in data set [4]; 14 ± 5 nM in the data set on B16-F10 melanoma. Besides, the concentration giving a half-maximal response (EC50) with PC-3 prostate carcinoma came to 13 ± 5 nM; in data set [5], 24 ± 11 nM; in data set [6] it was 16 ± 3 nM; in [7], 32 nM; in data set [8] it was 25 ± 9 nM; in [9], 12 ± 4 nM. For the same molecule, the “cytotoxicity against HuVECs” value in the data set with HuVECs (in words) is “cytotoxic against HuVECs”. In addition, the “cytotoxic activity against both HL-60 and HL-60/MX2” value in [1] (in words) was “retained cytotoxic activity”. Further, the Fold change in data set [1] (ratio of EC50 values (HL-60/MX2:HL-60)) is recorded as 0.5; in data set [2] (ratio of EC50 values (MES-SA/Dx5:MES-SA)), 1.2. For the same molecule, the “cytotoxic activity against both MES-SA and MES-SA/Dx5” value in data set [2] (in words) is on record as “retained equivalent cytotoxic activity”.

The values above are taken from US8129527B2, “Analogs of dehydrophenylahistins and their therapeutic use” (Nereus Pharmacuticals, Inc., priority 2006, dated 2012).
